Measured values published in US10975081B2, “Substituted fused pyrazole compounds and their use as LRRK2 inhibitors” (GlaxoSmithKline Intellectual Property Development Limited, priority 2015, dated 2021).
Counter-ions that a name gives are not always drawn.

Tests used:
[1] = target: Truncated G2019 human LRRK2 (1326-2527) (Homo sapiens (Human), UniProt Q5S007); assay: Truncated G2019 human LRRK2 (1326-2527) inhibition mass spectrometry assay; type: biochemical; conditions: 6HIS-Tev-LRRK2 (1326-2527), 25 uM LRRKtide, 20 uM ATP; for IC50: read-out: Truncated G2019 human LRRK2 inhibition mass spectrometry assay (pIC50) (converted)
From the text: 1) Truncated G2019 Human LRRK2 (1326-2527) Inhibition Mass Spectrometry Assay
A LRRK2 cDNA encoding residues 1326-2527 was received from Dundee University (described in M. Jaleel et al., 2007, Biochem J, 405: 407-417). This gene fragment was subcloned into pFB-HTb (Invitrogen) using BamHI and NotI restriction sites. The LRRK2 plasmid was recombined into the baculovirus genome according to the BAC-to-BAC protocol described by Invitrogen. Transfection into Spodoptera frugiperda (Sf9) insect cells was performed using Cellfectin (Invitrogen), according to the manufacturer's protocol to generate P1 and P2 baculovirus stocks.
Sf9 cells were grown in HyClone SFX (Thermo Scientific) growth media at 27° C., 80 rpm in shake flask until of a sufficient volume to inoculate a bioreactor. The cells were grown in a 20 litre working volume Wave bioreactor (GE Healthcare) at 27° C., 50% dissolved oxygen and an agitation rate 22 rocks per minute, 10 degree rock angle, 200 ml/min air with a cell concentration of approximately 6xe6 cells/ml. The cells were infected with P2 Baculovirus at a multiplicity of infection (MOI) of 3. The cultivation was continued for a 48 hour expression phase. The infected cells were removed from the growth media by centrifugation at 2500 g using a Sorvall RC 3C Plus centrifuge at 2500 g for 20 minutes. The cell pellet was immediately frozen and subsequently supplied for purification.
A 260 g pellet was allowed to thaw in a water bath at 27° C. with 800 ml lysis buffer/buffer A (50 mm Tris-HCl pH 8.5, 300 mM NaCl, 1 mm DTT, 10% glycerol, 1 ml/L Calbiochem complete protease inhibitor cocktail and benzonase (50 ul/800 ml)) before being dounce homogenised on ice using 20 strokes per 100 ml. The suspension was packed in ice and sonicated at 50% amplitude for 3 min 10 sec on/off using a ¾″ probe. The suspension was then centrifuged at 100,000 g for 90 min, at 4° C.
The lysate (700 ml) was decanted from the insoluble pellet and contacted for 3h at 4° C. with 10 ml His bind Ni NTA resin by end over end mixing. The resin was recovered by centrifugation, 3000 g, 5 min at 4° C., and packed in an XK16 column. The column was then washed with 10 column volumes buffer A, 10 column volumes buffer B (buffer A+1M NaCl) and 10 column volumes buffer C (buffer A+20 mM imidazole). The column was then eluted with 15 column volumes buffer D (buffer A+300 mM imidazole) collecting 2 ml fractions. All washes and elution were conducted at 4 ml/min.
Fractions identified by SDS-PAGE as containing protein of interest were pooled and loaded directly onto a 320 ml SEC Superdex 200 pg column that was pre-equilibrated with buffer E (50 mM Tris-HCl pH 8.5, 300 mM NaCl, 10% glycerol, 1 mM DTT). The column was loaded and eluted with 1.2 column volumes buffer E at 2 ml/min collecting 2 ml fractions. Fractions identified by SDS-PAGE as containing protein of interest were tested for activity.
Production of LRRKtide for LRRK2 Inhibition Mass Spectrometry Assay
The ‘LRRKtide’ peptide (SEQ ID NO. 10) was synthesized as follows. The protected peptide was assembled on a solid-phase synthesiser using preloaded Wang resin and utilising standard Fmoc synthesis protocols. The crude peptide was obtained after cleavage from the resin with a mixture of trifluoroacetic acid (TFA), triisopropylsilane and water (95:2.5:2.5) for 3 hours at room temperature and was then purified using a C18 reverse-phase column utilising a 0.1% TFA-buffered water/acetonitrile gradient. The resulting fractions were analysed and fractions which were >95% pure by analytical HPLC and giving the correct molecular weight (mw) (by MALDiTOF mass spectroscopy) were pooled and freeze dried. The final material was analysed by HPLC and MALDiTOF mass spectroscopy.
Truncated G2019 Human LRRK2 (1326-2527) Inhibition Mass Spectrometry Assay […]

[2] = target: LRRK2 Ser935 phosphorylation in SH-SY5Y cells over-expressing recombinant full length LRRK2 (Homo sapiens (Human), UniProt Q5S007); assay: Recombinant cellular LRRK2 AlphaScreen assay; type: cell-based; conditions: 60 minutes, read-out: Recombinant cellular LRRK2 alphaScreen assay (pIC50) (converted)
From the text: To determine the activity of compounds against LRRK2 kinase activity in cells, the observed LRRK2 kinase-dependent modulation of LRRK2 Ser 935 phosphorylation (Dzamko et al., 2010, Biochem. J. 430: 405-413) was utilized to develop a quantitative 384 well plate-based immunoassay of LRRK2 Ser935 phosphorylation in the human neuroblastoma cell line SH-SY5Y, engineered to over-express recombinant full length LRRK2 protein.
A BacMam virus expressing full length recombinant LRRK2 was purchased from Invitrogen and amplified by inoculation of SF-9 cells at MOI 0.3 for 4-5 days in Sf-900 III SFM medium supplemented with 3% fetal bovine serum. Infected cell cultures were then centrifuged at 2000 g for 20 minutes, viral supernatant titer determined by anti-gp64 plaque assay and stored at 4° C.
Affinity-purified anti-phospho LRRK2 Ser935 sheep polyclonal antibody (Dzamko et al., 2010, Biochem. J. 430: 405-413) was biotinylated by standard methods (PerkinElmer). Anti-LRRK2 rabbit polyclonal antibody was purchased from Novus Biologicals. AlphaScreen Protein A IgG Kit (including acceptor and donor beads) was purchased from Perkin Elmer.
SH-SY5Y cells were grown in DMEM/F12 medium with 10% dialysed fetal bovine serum and harvested by treatment with 0.5% trypsin-EDTA for 5 minutes at 37° C. followed by centrifugation at 1000 rpm for 4 minutes. The cell pellet was resuspended in Opti-MEM reduced serum media (Invitrogen) at 200,000 cells/ml and mixed with the BacMam LRRK2 virus at M01=50. 50 μl cell solutions were then dispensed to each well of a 384-well plate and incubated at 37° C., 5% CO2 for 24 hours.
Serial dilutions of test compounds were prepared in Opti-MEM reduced serum media (Invitrogen) and 5.6 ul transferred from compound plate to cell assay plate to achieve a top final assay concentration of 10 uM. DMSO was used in certain wells as controls. Cells were incubated at 37° C., 5% CO2 for 60 minutes. The medium was then removed and cells lysed by addition of 20 ul cell lysis buffer (Cell Signaling Technology) and incubation at 4° C. for 20 minutes. 10 ul of antibody/acceptor bead mix [( 1/1000 biotinylated-pS935 LRRK2 antibody, 1/1000 total-LRRK2 antibody, 1/100 Acceptor beads in AlphaScreen detection buffer (25 mM Hepes (pH 7.4), 0.5% Triton X-100, 1 mg/ml Dextran 500 and 0.1% BSA)] was then added to each well and plates incubated for 2 hours at ambient temperature in the dark. 10 μl of donor beads solution (1/33.3 donor beads in AlphaScreen detection buffer) was then added to each well. Following incubation for a further 2 hours at ambient temperature in the dark, plates were read on an EnVision™ plate reader at emission 520-620 nm with excitation 680 nm. Dose response curve data was based on sigmoidal dose-response model.

Sequence of LRRK2 Ser935 phosphorylation in SH-SY5Y cells over-expressing recombinant full length LRRK2 (Q5S007 whole entry): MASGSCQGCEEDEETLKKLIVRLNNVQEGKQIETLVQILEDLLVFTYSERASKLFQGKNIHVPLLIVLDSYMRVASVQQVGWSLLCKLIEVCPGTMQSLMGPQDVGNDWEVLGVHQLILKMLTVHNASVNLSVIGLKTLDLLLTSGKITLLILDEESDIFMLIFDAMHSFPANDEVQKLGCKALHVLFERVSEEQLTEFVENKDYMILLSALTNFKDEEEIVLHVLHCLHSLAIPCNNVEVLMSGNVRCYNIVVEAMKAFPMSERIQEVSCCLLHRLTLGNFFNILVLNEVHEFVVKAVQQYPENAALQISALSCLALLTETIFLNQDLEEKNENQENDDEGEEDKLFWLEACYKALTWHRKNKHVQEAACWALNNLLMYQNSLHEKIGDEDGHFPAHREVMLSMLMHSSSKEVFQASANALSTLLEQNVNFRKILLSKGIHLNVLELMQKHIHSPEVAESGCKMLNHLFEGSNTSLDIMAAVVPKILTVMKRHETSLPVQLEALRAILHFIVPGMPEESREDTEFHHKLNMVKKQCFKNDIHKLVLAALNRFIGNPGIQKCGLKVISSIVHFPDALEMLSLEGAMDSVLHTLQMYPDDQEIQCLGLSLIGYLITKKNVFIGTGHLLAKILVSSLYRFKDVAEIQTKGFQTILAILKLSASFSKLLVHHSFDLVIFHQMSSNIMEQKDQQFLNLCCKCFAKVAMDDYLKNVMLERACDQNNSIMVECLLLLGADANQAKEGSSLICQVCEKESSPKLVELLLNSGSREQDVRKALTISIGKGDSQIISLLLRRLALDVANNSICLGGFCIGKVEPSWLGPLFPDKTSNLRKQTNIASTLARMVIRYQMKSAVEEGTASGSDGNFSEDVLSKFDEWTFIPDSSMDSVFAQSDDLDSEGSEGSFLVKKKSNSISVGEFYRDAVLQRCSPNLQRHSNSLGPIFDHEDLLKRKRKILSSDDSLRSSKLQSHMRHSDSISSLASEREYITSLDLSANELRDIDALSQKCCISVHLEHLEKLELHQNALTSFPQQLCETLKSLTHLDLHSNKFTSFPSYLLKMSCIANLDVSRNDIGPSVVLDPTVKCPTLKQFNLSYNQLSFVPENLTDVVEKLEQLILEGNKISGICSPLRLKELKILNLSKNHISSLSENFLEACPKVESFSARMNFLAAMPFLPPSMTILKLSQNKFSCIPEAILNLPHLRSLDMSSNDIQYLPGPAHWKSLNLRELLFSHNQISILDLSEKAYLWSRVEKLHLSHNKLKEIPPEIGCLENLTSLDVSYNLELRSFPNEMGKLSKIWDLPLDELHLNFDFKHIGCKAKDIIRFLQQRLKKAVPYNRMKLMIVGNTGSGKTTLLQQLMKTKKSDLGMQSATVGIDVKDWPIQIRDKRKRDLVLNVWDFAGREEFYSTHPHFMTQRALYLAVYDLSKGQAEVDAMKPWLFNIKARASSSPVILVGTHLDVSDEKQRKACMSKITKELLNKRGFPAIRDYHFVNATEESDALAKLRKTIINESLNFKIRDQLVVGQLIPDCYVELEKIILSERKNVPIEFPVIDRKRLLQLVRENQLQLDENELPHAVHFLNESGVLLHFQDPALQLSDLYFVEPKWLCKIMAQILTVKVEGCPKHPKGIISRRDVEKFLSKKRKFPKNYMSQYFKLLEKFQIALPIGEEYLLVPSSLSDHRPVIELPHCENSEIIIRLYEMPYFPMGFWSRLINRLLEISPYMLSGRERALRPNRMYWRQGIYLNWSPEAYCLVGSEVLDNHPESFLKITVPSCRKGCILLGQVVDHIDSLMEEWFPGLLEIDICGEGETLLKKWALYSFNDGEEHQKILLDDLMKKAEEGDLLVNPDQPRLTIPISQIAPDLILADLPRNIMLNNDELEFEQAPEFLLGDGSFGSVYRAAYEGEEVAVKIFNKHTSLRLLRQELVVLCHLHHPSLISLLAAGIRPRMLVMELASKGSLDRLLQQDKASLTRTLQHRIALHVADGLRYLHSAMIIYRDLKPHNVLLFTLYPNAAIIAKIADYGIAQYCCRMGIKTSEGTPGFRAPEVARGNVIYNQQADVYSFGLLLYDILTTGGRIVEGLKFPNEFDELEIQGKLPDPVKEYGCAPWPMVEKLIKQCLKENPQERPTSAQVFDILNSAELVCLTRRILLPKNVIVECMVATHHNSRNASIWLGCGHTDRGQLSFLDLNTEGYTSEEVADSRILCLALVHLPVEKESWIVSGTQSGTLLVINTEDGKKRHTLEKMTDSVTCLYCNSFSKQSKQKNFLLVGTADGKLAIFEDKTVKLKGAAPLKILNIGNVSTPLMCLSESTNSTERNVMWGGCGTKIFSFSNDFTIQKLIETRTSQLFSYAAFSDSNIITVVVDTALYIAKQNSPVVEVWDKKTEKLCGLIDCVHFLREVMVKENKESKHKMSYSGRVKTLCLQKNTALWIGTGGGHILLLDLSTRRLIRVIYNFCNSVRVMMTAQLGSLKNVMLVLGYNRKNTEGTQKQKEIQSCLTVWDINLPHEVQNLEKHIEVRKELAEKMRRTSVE
Sequence of Truncated G2019 human LRRK2 (1326-2527) (Q5S007 1326-2527): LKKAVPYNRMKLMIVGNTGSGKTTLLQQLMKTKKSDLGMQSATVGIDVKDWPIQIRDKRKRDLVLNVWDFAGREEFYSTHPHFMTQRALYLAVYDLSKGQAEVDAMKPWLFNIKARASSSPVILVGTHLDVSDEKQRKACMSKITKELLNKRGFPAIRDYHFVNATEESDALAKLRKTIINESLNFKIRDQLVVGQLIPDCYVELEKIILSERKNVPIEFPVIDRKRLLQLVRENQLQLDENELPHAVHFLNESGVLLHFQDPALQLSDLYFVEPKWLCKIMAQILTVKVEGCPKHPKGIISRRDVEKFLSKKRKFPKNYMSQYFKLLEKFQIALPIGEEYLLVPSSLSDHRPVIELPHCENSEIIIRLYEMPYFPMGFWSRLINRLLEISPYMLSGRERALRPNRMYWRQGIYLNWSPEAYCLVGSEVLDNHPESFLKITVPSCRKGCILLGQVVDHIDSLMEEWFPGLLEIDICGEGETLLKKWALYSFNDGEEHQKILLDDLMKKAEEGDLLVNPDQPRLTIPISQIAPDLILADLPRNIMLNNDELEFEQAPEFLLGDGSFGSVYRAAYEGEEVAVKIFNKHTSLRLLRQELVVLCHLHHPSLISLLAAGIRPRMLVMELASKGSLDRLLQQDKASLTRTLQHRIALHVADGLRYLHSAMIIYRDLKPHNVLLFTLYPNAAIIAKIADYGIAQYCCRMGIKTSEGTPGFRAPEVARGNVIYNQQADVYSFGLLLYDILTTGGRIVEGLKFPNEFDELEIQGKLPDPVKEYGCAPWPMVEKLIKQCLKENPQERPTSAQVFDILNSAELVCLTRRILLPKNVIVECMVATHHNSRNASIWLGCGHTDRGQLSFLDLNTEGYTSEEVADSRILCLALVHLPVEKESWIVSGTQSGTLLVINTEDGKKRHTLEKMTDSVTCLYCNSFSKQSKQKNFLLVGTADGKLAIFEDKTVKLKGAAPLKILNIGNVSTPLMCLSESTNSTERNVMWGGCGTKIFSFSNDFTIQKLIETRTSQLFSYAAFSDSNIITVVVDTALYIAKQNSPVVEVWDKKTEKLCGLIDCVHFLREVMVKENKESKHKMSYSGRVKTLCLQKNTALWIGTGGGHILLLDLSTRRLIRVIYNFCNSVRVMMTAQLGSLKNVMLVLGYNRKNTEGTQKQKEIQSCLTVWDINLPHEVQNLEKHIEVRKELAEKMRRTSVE

SMILES	IC50 [1]	IC50 [2]	Truncated G2019 human LRRK2 inhibition mass spectrometry assay (pIC50) [1]
COc1nc(N2CCOCC2)cc(-n2ncc3cc(C)c(C4CCN(C)CC4(F)F)cc32)n1 (single isomer, unassigned) [Example E4, 4-(6-(6-(3,3-Difluoro-1-methylpiperidin-4-yl)-5-methyl-1H-indazol-1-yl)-2-methoxypyrimidin-4-yl)morpholine]	7.94 nM	25.1 nM	
CNC(=O)[C@H]1CN(c2cc(-n3ncc4cc(C)c(C5CCN(C)CC5(F)F)cc43)nc(OC)n2)CCO1 (single isomer, unassigned) [Example E18]	12.6 nM	12.6 nM	
COc1nc(N2CCOCC2)cc(-n2ncc3cc(C)c(C4CCN(C5COC5)CC4(F)F)cc32)n1 (single isomer, unassigned) [Example E22, 4-(6-(6-(3,3-Difluoro-1-(oxetan-3-yl)piperidin-4-yl)-5-methyl-1H-indazol-1-yl)-2-methoxypyrimidin-4-yl)morpholine]	7.94 nM	12.6 nM	
COc1nc(N2CC(O)C2)cc(-n2ncc3cc(C)c(C4CCN(C)CC4F)cc32)n1 (single isomer, unassigned) [Example E38, (cis)-1-(6-(6-(3-Fluoro-1-methylpiperidin-4-yl)-5-methyl-1H-indazol-1-yl)-2-methoxypyrimidin-4-yl)azetidin-3-ol]		31.6 nM	8
COc1nc(N2CC(O)C2)cc(-n2ncc3cc(C)c(C4CCN(C)CC4F)cc32)n1 (single isomer, unassigned) [Example E39, (cis)-1-(6-(6-(3-Fluoro-1-methylpiperidin-4-yl)-5-methyl-1H-indazol-1-yl)-2-methoxypyrimidin-4-yl)azetidin-3-ol]	10 nM	5.01 nM	
Cc1nc(N2CC(O)C2)cc(-n2ncc3cc(C)c(C4CCN(C)CC4F)cc32)n1 (single isomer, unassigned) [Example E40, (cis)-1-(6-(6-(3-Fluoro-1-methylpiperidin-4-yl)-5-methyl-1H-indazol-1-yl)-2-methylpyrimidin-4-yl)azetidin-3-ol]	12.6 nM	50.1 nM	
Cc1nc(N2CC(O)C2)cc(-n2ncc3cc(C)c(C4CCN(C)CC4F)cc32)n1 (single isomer, unassigned) [Example E41, (cis)-1-(6-(6-(3-Fluoro-1-methylpiperidin-4-yl)-5-methyl-1H-indazol-1-yl)-2-methylpyrimidin-4-yl)azetidin-3-ol]		126 nM	7.9
Cc1cc2cnn(-c3cc(N4CC(O)C4)nc(OC(F)F)n3)c2cc1C1CCN(C)CC1F (single isomer, unassigned) [Example E48, (cis)-1-(2-(Difluoromethoxy)-6-(6-(3-fluoro-1-methylpiperidin-4-yl)-5-methyl-1H-indazol-1-yl)pyrimidin-4-yl)azetidin-3-ol]	≤ 10000 nM		
COc1nc(N2CCOCC2)cc(-n2ncc3cc(C)c([C@H]4CCNC[C@H]4F)cc32)n1 (single isomer, unassigned) [Example E62, (cis)-4-(6-(6-(3-Fluoropiperidin-4-yl)-5-methyl-1H-indazol-1-yl)-2-methoxypyrimidin-4-yl)morpholine hydrochloride]	7.94 nM	50.1 nM	
COc1nc(N2CC(C#N)C2)cc(-n2ncc3cc(C)c(C4CCNCC4(F)F)cc32)n1 (single isomer, unassigned) [Example E66, 1-(6-(6-(3,3-Difluoropiperidin-4-yl)-5-methyl-1H-indazol-1-yl)-2-methoxypyrimidin-4-yl)azetidine-3-carbonitrile]	31.6 nM	126 nM	
COc1nc(N2CC(O)C2)cc(-n2ncc3cc(C)c(C4CCN(C5COC5)CC4)cc32)n1 [Example E79, 1-(2-Methoxy-6-(5-methyl-6-(1-(oxetan-3-yl)piperidin-4-yl)-1H-indazol-1-yl)pyrimidin-4-yl)azetidin-3-ol]	12.6 nM	10 nM	
Cc1nc(N2CC(O)C2)cc(-n2ncc3cc(C)c(C4CCOCC4)cc32)n1 [Example E89, 1-(2-Methyl-6-(5-methyl-6-(tetrahydro-2H-pyran-4-yl)-1H-indazol-1-yl)pyrimidin-4-yl)azetidin-3-ol]		≤ 100 nM	
COc1nc(N2CCNCC2)cc(-n2ncc3cc(C)c(N4CCOCC4)cc32)n1 [Example E117, 4-(1-(2-Methoxy-6-(piperazin-1-yl)pyrimidin-4-yl)-5-methyl-1H-indazol-6-yl)morpholine]	25.1 nM	631 nM	
COc1nc(N2CC(OCCO)C2)cc(-n2ncc3cc(C)c(C4CCOCC4)cc32)n1 [Example E237, 2-((1-(2-Methoxy-6-(5-methyl-6-(tetrahydro-2H-pyran-4-yl)-1H-indazol-1-yl)pyrimidin-4-yl)azetidin-3-yl)oxy)ethanol]		≤ 100 nM	
Cc1nc(N2CC(O)C2)cc(-n2ncc3cc(Cl)c(N4CCC(O)CC4)cc32)n1 [Example E258, 1-(5-Chloro-1-(6-(3-hydroxyazetidin-1-yl)-2-methylpyrimidin-4-yl)-1H-indazol-6-yl)piperidin-4-ol]		≤ 100 nM	
